This test deals with T1, Akt1 pS473 (Homo sapiens, UniProt P31749).
T1 construct: expression of Akt1 pS473, Akt2 pS474, Akt3 pS472, and Akt pan 5473,474,472 in A2780 cells; endogenous in cells; host or cells: A2780 human ovarian carcinoma cells
Nature of the test: Akt1 phosphorylation in A2780 cells. It is filed as cell-based. The following applies: human ovarian carcinoma cells (A2780). The source says: FIG. 10 is a bar graph showing the effect of mJJ64A on the expression of Akt1 pS473, Akt2 pS474, Akt3 pS472, and Akt pan 5473,474,472 in A2780 cells compared to control. The Y axis represents integrated density value.

T1 sequence (P31749 whole entry): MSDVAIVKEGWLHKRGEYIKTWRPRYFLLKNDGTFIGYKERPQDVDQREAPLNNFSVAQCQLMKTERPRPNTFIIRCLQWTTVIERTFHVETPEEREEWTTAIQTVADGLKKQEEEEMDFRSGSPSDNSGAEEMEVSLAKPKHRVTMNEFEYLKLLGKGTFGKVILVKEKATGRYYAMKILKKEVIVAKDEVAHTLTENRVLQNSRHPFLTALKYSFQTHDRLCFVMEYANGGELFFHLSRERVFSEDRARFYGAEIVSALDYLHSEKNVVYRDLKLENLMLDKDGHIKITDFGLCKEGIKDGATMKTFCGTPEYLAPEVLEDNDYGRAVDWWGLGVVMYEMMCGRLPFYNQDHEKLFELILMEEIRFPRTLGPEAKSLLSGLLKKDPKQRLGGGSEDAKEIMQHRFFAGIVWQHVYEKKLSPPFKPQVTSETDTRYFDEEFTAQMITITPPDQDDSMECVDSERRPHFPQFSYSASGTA

On to `N#Cc1ccc2nccc(Nc3ccc(C(=O)Nc4ccc(Nc5ccncc5)cc4)cc3)c2c1` [Compound 2], for which the “phosphorylation of Akt1” value is “not”.

The values above are taken from US11291719B2, “Methods and compositions for modulating Akt3” (Augusta University Research Institute, Inc., priority 2016, dated 2022).
